pIC50: −log10 of the molar value. Values joined by “and” are separate entries in the source; they are usually repeats but may differ in a detail not shown here. Equal entries are not always repeated. Square brackets hold non-standard residues; d marks the D form. Ends that are not written are not given here. Peptide text beside a SMILES is read from it. Abu = CC[C@H](N)C(=O)O; Lac = C[C@H](O)C(=O)O
System: XIAP BIR3 domain
Experiment: not given
Details: ref Nikolovska-Coleska et al., 2004; cited from earlier work
In the case of `CCCCCCCCCCCC1=C(O)C(=O)C=C(O)C1=O` [Embelin], the pIC50 is listed as 5.39.

Target: XIAP BIR3 (Homo sapiens, UniProt P98170)
Sequence (P98170 241-356 limits assumed): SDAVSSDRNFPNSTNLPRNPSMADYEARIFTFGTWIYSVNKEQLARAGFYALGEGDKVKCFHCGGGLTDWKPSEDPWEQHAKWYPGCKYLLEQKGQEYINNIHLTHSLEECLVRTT
Experiment: Peptide–BIR3 binding assay
Details: not given
For `CC[C@H](C)[C@H](NC(=O)[C@H](C)N)C(=O)N1CCC[C@H]1C(=O)N[C@@H](Cc1ccccc1)C(N)=O` [Compound 16, AIPF] (H-AIPF-NH2), the pIC50 was 7.10.
`CC(C)[C@H](NC(=O)[C@H](C)N)C(=O)N[C@@H](C)C(=O)N[C@@H](Cc1ccccc1)C(N)=O` [Compound 6, AVAF] showed a pIC50 of 6.12.
Molecule `CC(C)C[C@H](NC(=O)[C@H](C)N)C(=O)N1CCC[C@H]1C(=O)N[C@@H](Cc1ccccc1)C(N)=O` [Compound 15, ALPF] (H-ALPF-NH2) has a pIC50 of 6.74.
In the case of `CC(C)[C@H](NC(=O)[C@H](C)O)C(=O)N1CCC[C@H]1C(=O)N[C@@H](Cc1ccccc1)C(N)=O` [Compound 14, Lac–VPF] (H-[Lac]VPF-NH2), the pIC50 was under 5.80.
In the case of `CC(C)[C@H](NC(=O)[C@H](C)N)C(=O)N1C[C@H](O)C[C@H]1C(=O)N[C@@H](Cc1ccccc1)C(N)=O` [Compound 20, AV–Hyp–F], the pIC50 was 6.00.
Molecule `CC(C)[C@H](NC(=O)[C@H](C)N)C(=O)N1CCC[C@H]1C(N)=O` [Compound 5, AVP] (H-Ala-Val-Pro-NH2) has a pIC50 of under 5.00.
With `CC[C@H](N)C(=O)N[C@H](C(=O)N1CCC[C@H]1C(=O)N[C@@H](Cc1ccccc1)C(N)=O)C(C)C` [Compound 9, Abu–VPF] (H-[Abu]VPF-NH2) the pIC50 was 6.92.
`CC[C@H](C)[C@H](NC(=O)[C@H](C)N)C(=O)N[C@@H](C)C(=O)N[C@@H](Cc1ccc(O)cc1)C(N)=O` [Compound 8, AIAY] (H-AIAY-NH2) showed a pIC50 of 6.47.
With `CC(C)[C@H](NC(=O)[C@@H](N)CO)C(=O)N1CCC[C@H]1C(=O)N[C@@H](Cc1ccccc1)C(N)=O` [Compound 10, SVPF] (H-SVPF-NH2) the pIC50 was 6.00.
Molecule `C[C@H](N)C(=O)N[C@H](C(=O)N1CCC[C@H]1C(=O)N[C@@H](Cc1ccccc1)C(N)=O)[C@@H](C)O` [Compound 17, ATPF] (H-ATPF-NH2) has a pIC50 of 6.70.
Molecule AVPIA-NH2 [Compound 3, AVPIA] has a pIC50 of 6.52.

Same assay, conditions: IC50, inhibition of Smac–BIR3 interaction, FMAT
Work on AVPIAQ-NH2 [Compound 2, AVPIAQ] yielded a pIC50 of 6.57.
With AVPIAQK-NH2 [Compound 1, AVPIAQK] the pIC50 was 6.40 and 6.41.

Target: GST–BIR3 (Homo sapiens, UniProt P98170)
Sequence (P98170 241-356 limits assumed): as above
Experiment: not given
Type: biochemical
Details: not given
AVPFAQK-NH2 [AVPFAQK] gave a pIC50 of 5.70.
AVPIAQK-NH2 [Compound 1, AVPIAQK] showed a pIC50 of 5.52.
